Measured values reported in US20230382911A1 (Hoffmann-La Roche Inc., priority 2021, published 2023).
pIC50: −log10 of the molar value.

The compounds below were run against Recombinant human Mat2a (Homo sapiens (Human), UniProt P31153) (assay: Determination of Mat2A activity: 384 well format absorbance-based Mat2A inhibition assay). Conditions: 12.5 nM Mat2A, 100 μM ATP and Methionine, 2% DMSO, 120 minutes at RT, Biomol Green, absorbance at 635 nm.
Assay type: biochemical
Protocol: Determination of Mat2A Activity
Measurement of Mat2A inhibition is performed in 384 well format absorbance-based assay.
Recombinant human Mat2a (12.5 nM) and serial diluted compounds in DMSO (range of concentrations from 10 μM to […]) or controls (DMSO) are incubated for 15 minutes at room temperature (RT) in assay buffer containing 50 mM HEPES pH 7.5, 50 mM KCl, 50 mM MgCl2, 0.01% Tween 20 and 10 mM DTT. The reaction is initiated by the addition of the combined substrates ATP and Methionine, each at a final concentration of 100 μM. Final assay condition are 12.5 nM Mat2A, 100 μM ATP and Methionine Substrates and 2% DMSO. After 120 minutes of incubation at RT, the reaction is stopped by the addition of Biomol Green. The absorbance signal is measured at λ=635 nm with a multiplate reader (BMG Pherastar reader or equivalent) after 30 min of equilibration at RT.

Sequence of Recombinant human Mat2a (P31153 whole entry): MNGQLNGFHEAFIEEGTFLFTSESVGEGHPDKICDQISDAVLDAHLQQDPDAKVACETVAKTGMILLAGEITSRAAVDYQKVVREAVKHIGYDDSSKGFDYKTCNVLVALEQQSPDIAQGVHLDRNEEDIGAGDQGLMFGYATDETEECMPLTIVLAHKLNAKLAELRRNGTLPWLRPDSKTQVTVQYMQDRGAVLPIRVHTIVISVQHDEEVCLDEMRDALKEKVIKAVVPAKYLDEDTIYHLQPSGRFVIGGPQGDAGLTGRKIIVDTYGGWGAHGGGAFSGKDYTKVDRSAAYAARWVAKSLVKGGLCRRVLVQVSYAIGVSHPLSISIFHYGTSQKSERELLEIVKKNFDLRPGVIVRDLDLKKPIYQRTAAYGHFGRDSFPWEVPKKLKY

Structure (SMILES)	pIC50
COc1ccccc1C(=O)n1nc(N)c2cc(F)c(N3CC(F)(F)C3)nc21 [Example 14, (3-amino-6-(3,3-difluoroazetidin-1-yl)-5-fluoro-1H-pyrazolo[3,4-b]pyridin-1-yl)(2-methoxyphenyl)methanone]	7.02
COc1ccccc1C(=O)n1nc(N)c2ccc(N3CCCC3)nc21 [Example 3, (3-amino-6-(pyrrolidin-1-yl)-1H-pyrazolo[3,4-b]pyridin-1-yl)(2-methoxyphenyl)methanone]	7.28
COc1ccccc1C(=O)n1nc(N)c2ccc(N3C[C@@H]4CC[C@H]3C4)nc21 (racemic) [Example 51, [3-amino-6-[(1RS,4SR)-3-azabicyclo[2.2.1]heptan-3-yl]pyrazolo[3,4-b]pyridin-1-yl]-(2-methoxyphenyl)methanone]	6.77
COc1c(C#N)cccc1C(=O)n1nc(N)c2ccc(C3CC3)nc21 [Example 72, 3-(3-amino-6-cyclopropyl-1H-cyclopropyl-1H-pyrazolo[3,4-b]pyridine-1-carbonyl)-2-methoxybenzonitrile]	7.43
COc1c(F)cccc1C(=O)n1nc(N)c2cc(F)c(N3CCCC3)nc21 [Example 46, (3-amino-5-fluoro-6-(pyrrolidin-1-yl)-1H-pyrazolo[3,4-b]pyridin-1-yl)(3-fluoro-2-methoxyphenyl)methanone]	7.26
CC1OCCC1C(=O)n1nc(N)c2ccc(C3CC3)nc21 (stereo not drawn) [Example 64, (3-amino-6-cyclopropyl-1H-pyrazolo[3,4-b]pyridin-1-yl)(2-methyltetrahydrofuran-3-yl)methanone]	7.39
Cc1ccccc1C(=O)n1nc(N)c2ccc(N3CC(F)(F)C3)nc21 [Example 28, (3-amino-6-(3,3-difluoroazetidin-1-yl)-1H-pyrazolo[3,4-b]pyridin-1-yl)(o-tolyl)methanone]	6.47
Nc1nn(C(=O)c2cccc3c2OCO3)c2nc(C3CC3)ccc12 [Example 19, (3-amino-6-cyclopropylpyrazolo[3,4-b]pyridin-1-yl)-(1,3-benzodioxol-4-yl)methanone]	6.39
Cc1ccccc1C(=O)n1nc(N)c2ccc(C3CC3)nc21 [Example 20, (3-amino-6-cyclopropylpyrazolo[3,4-b]pyridin-1-yl)-(2-methylphenyl)methanone]	6.80
Nc1nn(C(=O)C2CCCOC2)c2nc(C3CC3)ccc12 (stereo not drawn) [Example 73, (3-amino-6-cyclopropyl-1H-cyclopropyl-1H-pyrazolo[3,4-b]pyridin-1-yl)(tetrahydro-2H-pyran-3-yl)methanone]	6.74
Cc1ccccc1C(=O)n1nc(N)c2ccc([C@H]3C[C@@H]3C)nc21 (racemic) [Example 33, (3-amino-6-((1RS,2RS)-2-methylcyclopropyl)-1H-pyrazolo[3,4-b]pyridin-1-yl)(o-tolyl)methanone]	7.55
COc1ccccc1C(=O)n1nc(N)c2cc3c(nc21)CC(C)CC3 (stereo not drawn) [Example 38, (3-amino-7-methyl-5,6,7,8-tetrahydro-1H-pyrazolo[3,4-b]quinolin-1-yl)(2-methoxyphenyl)methanone]	6.92
COc1ccccc1C(=O)n1nc(N)c2ccc(C(F)(F)F)nc21 [Example 26]	6.92
Nc1nn(C(=O)C2CCOCC2)c2nc(C3CC3)ccc12 [Example 67, (3-amino-6-cyclopropyl-1H-pyrazolo[3,4-b]pyridin-1-yl)(tetrahydro-2H-pyran-4-yl)methanone]	7.31
COc1ccccc1C(=O)n1nc(N)c2ccc(N3CCC3)nc21 [Example 24, (3-amino-6-(azetidin-1-yl)-1H-pyrazolo[3,4-b]pyridin-1-yl)(2-methoxyphenyl)methanone]	6.52
COC1CCCCC1C(=O)n1nc(N)c2ccc(C3CC3)nc21 (stereo not drawn) [Example 37, (3-amino-6-cyclopropyl-1H-pyrazolo[3,4-b]pyridin-1-yl)(2-methoxycyclohexyl)methanone]	6.54
COc1ccccc1C(=O)n1nc(N)c2ccc(-c3ccccc3)nc21 [Example 1, (3-amino-6-phenyl-1H-pyrazolo[3,4-b]pyridin-1-yl)(2-methoxyphenyl)methanone]	7.04
Cc1cccc(C(=O)n2nc(N)c3ccc(C4CC4)nc32)c1C [Example 55, (3-amino-6-cyclopropyl-1H-pyrazolo[3,4-b]pyridin-1-yl)(2,3-dimethylphenyl)methanone]	6.49

Structure (SMILES)	pIC50
Cc1ccccc1C(=O)n1nc(N)c2ccc(C3CCCC3)nc21 [Example 29, (3-amino-6-cyclopentylpyrazolo[3,4-b]pyridin-1-yl)-(2-methylphenyl)methanone]	6.32
Cc1c(C#N)cccc1C(=O)n1nc(N)c2ccc(C3CC3)nc21 [Example 66, 3-(3-amino-6-cyclopropyl-1H-pyrazolo[3,4-b]pyridine-1-carbonyl)-2-methylbenzonitrile]	7.27
Cc1nscc1C(=O)n1nc(N)c2ccc(C3CC3)nc21 [Example 79, (3-amino-6-cyclopropyl-1H-pyrazolo[3,4-b]pyridin-1-yl)(3-methylisothiazol-4-yl)methanone]	6.82
CCc1ccccc1C(=O)n1nc(N)c2ccc(C3CC3)nc21 [Example 60, (3-amino-6-cyclopropyl-1H-pyrazolo[3,4-b]pyridin-1-yl)(2-ethylphenyl)methanone]	7.43
COc1c(F)cccc1C(=O)n1nc(N)c2ccc(C3CC3)nc21 [Example 57, (3-amino-6-cyclopropyl-1H-pyrazolo[3,4-b]pyridin-1-yl)(3-fluoro-2-methoxyphenyl)methanone]	6.96
Cc1ccccc1C(=O)n1nc(N)c2cc(F)c(N3CCCC3)nc21 [Example 13, (3-amino-5-fluoro-6-(pyrrolidin-1-yl)-1H-pyrazolo[3,4-b]pyridin-1-yl)(o-tolyl)methanone]	6.96
Cc1ccccc1C(=O)n1nc(N)c2ccc(C3=CCOC3)nc21 [Example 36, [3-amino-6-(2,5-dihydrofuran-3-yl)pyrazolo[3,4-b]pyridin-1-yl]-(2-methylyphenyl)methanone]	7.17
Cc1ccccc1C(=O)n1nc(N)c2cc(Cl)c(C3CC3)nc21 [Example 9]	6.41
C[C@H]1OCC[C@H]1C(=O)n1nc(N)c2ccc(C3CC3)nc21 (racemic) [Example 65, (3-amino-6-cyclopropyl-1H-pyrazolo[3,4-b]pyridin-1-yl)((2SR,3RS)-2-methyltetrahydrofuran-3-methyloxolane-2-yl)methanone]	7.44
Cc1nnccc1C(=O)n1nc(N)c2ccc(C3CC3)nc21 [Example 78, (3-amino-6-cyclopropyl-1H-pyrazolo[3,4-b]pyridin-1-yl)(3-methylpyridazin-4-yl)methanone]	6.70
COc1ccccc1C(=O)n1nc(N)c2ccc(C3CC3)nc21 [Example 7, (3-amino-6-cyclopropylpyrazolo[3,4-b]pyridin-1-yl)-(2-methoxyphenyl)methanone]	6.92
Cc1ccccc1C(=O)n1nc(N)c2cnc(N3CCCC3)nc21 [Example 17, (3-amino-6-(pyrrolidin-1-yl)-1H-pyrazolo[3,4-d]pyrimidin-1-yl)(o-tolyl)methanone]	6.55
Nc1nn(C(=O)C2CCCCC2)c2nc(C3CC3)ccc12 [Example 56, (3-amino-6-cyclopropyl-1H-pyrazolo[3,4-b]pyridin-1-yl)(cyclohexyl)methanone]	6.37
COc1c(F)cccc1C(=O)n1nc(N)c2ccc(C3=CCOC3)nc21 [Example 47, [3-amino-6-(2,5-dihydrofuran-3-yl)pyrazolo[3,4-b]pyridin-1-yl]-(3-fluoro-2-methoxyphenyl)methanone]	7.60
COc1c(C)cccc1C(=O)n1nc(N)c2ccc(C3CC3)nc21 [Example 70, (3-amino-6-cyclopropyl-1H-pyrazolo[3,4-b]pyridin-1-yl)(2-methoxy-3-methylphenyl)methanone]	6.74
COc1ccccc1C(=O)n1nc(N)c2ccc([C@@H]3C[C@H]3C(F)(F)F)nc21 (racemic) [Example 42, [3-amino-6-[(1RS,2RS)-2-(trifluoromethyl)cyclopropyl]pyrazolo[3,4-b]pyridin-1-yl]-(2-methoxyphenyl)methanone]	6.70
Cc1ccccc1C(=O)n1nc(N)c2ccc(N3CCCC3)nc21 [Example 5, (3-amino-6-(pyrrolidin-1-yl)-1H-pyrazolo[3,4-b]pyridin-1-yl)(o-tolyl)methanone]	7.03
Cc1ocnc1C(=O)n1nc(N)c2ccc(C3CC3)nc21 [Example 62, (3-amino-6-cyclopropyl-1H-pyrazolo[3,4-b]pyridin-1-yl)(5-methyloxazol-4-yl)methanone]	6.46
